The target in data set [1] is Bromodomain-containing protein 2 (Homo sapiens, UniProt P25440). The experiment in a line: Binding affinity to human BRD2 bromodomain 1 assessed as dissociation constant by BROMOscan method.
The target of data set [2] is SWI/SNF-related matrix-associated actin-dependent regulator of chromatin subfamily A member 2 (Homo sapiens, UniProt P51531). The experiment in a line: Binding affinity to human SMARCA2 bromodomain assessed as dissociation constant by BROMOscan method.
A further data set relates to MDA-MB-468. In words: Antiproliferative activity against human MDA-MB-468 cells expressing ATAD2 assessed as inhibition of colony formation at 0.01 to 10 uM measured after 14 to 21 days by AlamarBlue staining based colony formation assay. In kind it is functional, cell-based. The note with it: dose 0.01-10 µM, time 14-21 day.
Data set [3] has as its target T1, ATPase family AAA domain-containing protein 2 (Homo sapiens, UniProt Q6PL18).
T1 sequence (Q6PL18 whole entry): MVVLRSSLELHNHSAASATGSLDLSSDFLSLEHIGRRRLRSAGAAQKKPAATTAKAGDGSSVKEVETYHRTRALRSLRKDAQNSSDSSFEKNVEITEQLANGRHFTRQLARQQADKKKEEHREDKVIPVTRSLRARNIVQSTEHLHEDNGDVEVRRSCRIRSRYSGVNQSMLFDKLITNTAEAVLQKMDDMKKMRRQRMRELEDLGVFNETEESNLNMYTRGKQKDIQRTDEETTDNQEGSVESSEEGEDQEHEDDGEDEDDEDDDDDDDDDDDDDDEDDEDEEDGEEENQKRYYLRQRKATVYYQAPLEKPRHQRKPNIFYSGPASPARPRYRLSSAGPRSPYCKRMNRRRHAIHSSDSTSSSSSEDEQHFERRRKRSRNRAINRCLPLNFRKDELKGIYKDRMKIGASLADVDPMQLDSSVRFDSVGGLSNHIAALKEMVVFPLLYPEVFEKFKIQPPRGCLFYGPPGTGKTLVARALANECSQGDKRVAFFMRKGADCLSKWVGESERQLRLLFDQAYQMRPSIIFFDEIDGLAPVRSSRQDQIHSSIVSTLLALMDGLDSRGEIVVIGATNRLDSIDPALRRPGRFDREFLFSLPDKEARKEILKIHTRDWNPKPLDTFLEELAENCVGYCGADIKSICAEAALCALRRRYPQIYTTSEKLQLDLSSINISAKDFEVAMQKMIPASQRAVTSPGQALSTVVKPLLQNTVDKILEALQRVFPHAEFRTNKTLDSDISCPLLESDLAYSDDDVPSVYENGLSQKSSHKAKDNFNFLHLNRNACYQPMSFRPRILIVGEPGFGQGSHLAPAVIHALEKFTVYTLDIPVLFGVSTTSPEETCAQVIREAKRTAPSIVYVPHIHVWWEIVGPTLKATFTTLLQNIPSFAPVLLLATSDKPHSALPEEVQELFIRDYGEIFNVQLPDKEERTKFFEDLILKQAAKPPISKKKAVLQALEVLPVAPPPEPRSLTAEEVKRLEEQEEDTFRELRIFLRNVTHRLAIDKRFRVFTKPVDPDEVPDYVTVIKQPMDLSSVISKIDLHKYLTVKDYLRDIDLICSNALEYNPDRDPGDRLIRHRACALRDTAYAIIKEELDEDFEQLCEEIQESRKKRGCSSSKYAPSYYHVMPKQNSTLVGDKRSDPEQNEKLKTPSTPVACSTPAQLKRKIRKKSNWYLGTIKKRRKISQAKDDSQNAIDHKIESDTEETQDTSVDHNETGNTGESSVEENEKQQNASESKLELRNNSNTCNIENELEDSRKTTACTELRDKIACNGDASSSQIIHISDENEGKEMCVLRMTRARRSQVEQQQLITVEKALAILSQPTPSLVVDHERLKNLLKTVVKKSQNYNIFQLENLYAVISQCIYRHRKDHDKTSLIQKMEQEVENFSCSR
In words: Binding affinity to ATAD2 bromodomain (981 to 1108 residues) (unknown origin) expressed in Escherichia coli BL21 (DE3) by BROMOscan method.

The next data set has as its target Protein polybromo-1 (Homo sapiens, UniProt Q86U86). The experiment in a line: Binding affinity to human PBRM1 bromodomain 5 assessed as dissociation constant by BROMOscan method.
Data set [4] addresses Bromodomain-containing protein 4 (Homo sapiens, UniProt O60885). The experiment in a line: Binding affinity to human BRD4 bromodomain 2 assessed as residual activity at 300 nM by BROMOscan method relative to control.
The target in data set [5] is T2, Bromodomain-containing protein 3 (Homo sapiens, UniProt Q15059). The experiment in a line: Binding affinity to human BRD3 bromodomain 2 assessed as residual activity at 300 nM by BROMOscan method relative to control.
Target sequence in this assay (Q15059 2-726 limits assumed): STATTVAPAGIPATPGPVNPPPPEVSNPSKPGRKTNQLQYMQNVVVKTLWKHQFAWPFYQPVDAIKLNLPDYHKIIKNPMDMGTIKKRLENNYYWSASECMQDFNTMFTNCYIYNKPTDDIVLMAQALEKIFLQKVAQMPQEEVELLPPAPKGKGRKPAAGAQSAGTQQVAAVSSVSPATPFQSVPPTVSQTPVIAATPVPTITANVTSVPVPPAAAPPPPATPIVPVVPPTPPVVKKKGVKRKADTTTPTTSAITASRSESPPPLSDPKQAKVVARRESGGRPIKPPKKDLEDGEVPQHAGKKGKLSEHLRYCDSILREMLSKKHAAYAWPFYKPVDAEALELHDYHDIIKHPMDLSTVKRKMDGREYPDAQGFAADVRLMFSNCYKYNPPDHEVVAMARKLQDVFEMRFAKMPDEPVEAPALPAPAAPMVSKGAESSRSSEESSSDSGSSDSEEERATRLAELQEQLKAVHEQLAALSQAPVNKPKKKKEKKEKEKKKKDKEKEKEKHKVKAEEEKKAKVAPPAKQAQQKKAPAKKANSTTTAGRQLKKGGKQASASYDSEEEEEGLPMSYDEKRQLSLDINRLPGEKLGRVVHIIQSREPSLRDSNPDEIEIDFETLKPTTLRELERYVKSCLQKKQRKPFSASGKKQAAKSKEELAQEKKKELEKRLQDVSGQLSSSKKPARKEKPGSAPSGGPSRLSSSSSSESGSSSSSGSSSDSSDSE
In data set [6] the target is T2, Bromodomain-containing protein 3. The experiment in a line: Binding affinity to human BRD3 bromodomain 2 assessed as dissociation constant by BROMOscan method.
Target sequence in this assay (Q15059 whole entry): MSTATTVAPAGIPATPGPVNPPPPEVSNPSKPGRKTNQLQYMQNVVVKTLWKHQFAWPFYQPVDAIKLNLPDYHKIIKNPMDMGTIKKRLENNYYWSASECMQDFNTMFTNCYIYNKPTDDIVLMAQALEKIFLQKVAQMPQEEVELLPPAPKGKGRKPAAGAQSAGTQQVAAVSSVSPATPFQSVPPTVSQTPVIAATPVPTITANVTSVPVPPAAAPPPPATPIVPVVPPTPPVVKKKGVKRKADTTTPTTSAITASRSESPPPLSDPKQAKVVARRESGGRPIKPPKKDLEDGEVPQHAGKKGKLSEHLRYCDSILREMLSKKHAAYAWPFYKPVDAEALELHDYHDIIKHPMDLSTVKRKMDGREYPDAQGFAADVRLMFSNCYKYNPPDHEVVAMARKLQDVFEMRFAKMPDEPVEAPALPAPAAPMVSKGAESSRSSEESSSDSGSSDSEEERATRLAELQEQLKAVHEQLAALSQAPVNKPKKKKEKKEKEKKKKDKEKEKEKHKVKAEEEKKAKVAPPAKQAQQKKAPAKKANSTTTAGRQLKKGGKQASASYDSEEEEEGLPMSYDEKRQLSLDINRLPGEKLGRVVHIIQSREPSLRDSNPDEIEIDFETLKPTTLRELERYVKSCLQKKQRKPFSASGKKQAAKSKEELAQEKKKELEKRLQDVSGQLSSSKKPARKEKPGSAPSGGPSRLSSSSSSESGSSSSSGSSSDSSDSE
The target of data set [7] is Histone acetyltransferase KAT2B (Homo sapiens, UniProt Q92831). In words: Binding affinity to human PCAF bromodomain assessed as dissociation constant by BROMOscan method.
The next data set relates to T47D. The experiment in a line: Antiproliferative activity against human T-47D cells expressing ATAD2 assessed as inhibition of colony formation at 0.01 to 10 uM measured after 14 to 21 days by AlamarBlue staining based colony formation assay. The note with it: dose 0.01-10 µM, time 14-21 day. In kind it is functional, cell-based.
The species named for another data set is Homo sapiens. In words: Binding affinity to human ATAD2A assessed as residual activity at 300 nM by BROMOscan method relative to control.
Data set [8] addresses Histone acetyltransferase KAT2A (Homo sapiens) (UniProt Q92830). The experiment in a line: Binding affinity to human GCN5L2 bromodomain assessed as residual activity at 300 nM by BROMOscan method relative to control.
In data set [9] the target is SWI/SNF-related matrix-associated actin-dependent regulator of chromatin subfamily A member 4 (Homo sapiens) (UniProt P51532). The experiment in a line: Binding affinity to human SMARCA4 bromodomain assessed as residual activity at 300 nM by BROMOscan method relative to control.
The target in data set [10] is Bromodomain-containing protein 9 (Homo sapiens, UniProt Q9H8M2). The experiment in a line: Binding affinity to human BRD9 bromodomain by BROMOscan method.
Data set [11] can be described thus: Distribution coefficient, logD of compound at pH 7.4. In kind it is physicochemical. The conditions noted are these: octanol/water.
Data set [12] addresses Nucleosome-remodeling factor subunit BPTF (Homo sapiens, UniProt Q12830). The experiment in a line: Binding affinity to human FALZ bromodomain assessed as residual activity at 300 nM by BROMOscan method relative to control.
The target of data set [13] is T1, ATPase family AAA domain-containing protein 2. The experiment in a line: Displacement of Halo-tagged Histone H3.3 from Nanoluc-ATAD2 BD (962 to 1119 residues) (unknown origin) transfected in human HCT116 cells incubated for 18 hrs in presence of efflux inhibitor reversan by NanoBRET assay. It counts as cell-based, HCT-116.
The target is the same in data set [14]. In words: Inhibition of GST-ATAD2 BD (951 to 1132 residues) (unknown origin) expressed in Escherichia coli BL21 (DE3) and biotinylated tetra-acetylated histone H4 peptides as substrate by TR-FRET artifact assay.
Data set [15] has the same target. In words: Inhibition of GST-ATAD2 BD (951 to 1132 residues) (unknown origin) expressed in Escherichia coli BL21 (DE3) and biotinylated tetra-acetylated histone H4 peptides as substrate incubated for 30 mins by TR-FRET assay.

Data on 1 compound can be found in ChEMBL document CHEMBL5042544, “Discovery of a Potent and Selective ATAD2 Bromodomain Inhibitor with Antiproliferative Activity in Breast Cancer Models” (J Med Chem, 2022).

Structures are written as SMILES.

Sequence of Histone acetyltransferase KAT2B (Q92831 whole entry): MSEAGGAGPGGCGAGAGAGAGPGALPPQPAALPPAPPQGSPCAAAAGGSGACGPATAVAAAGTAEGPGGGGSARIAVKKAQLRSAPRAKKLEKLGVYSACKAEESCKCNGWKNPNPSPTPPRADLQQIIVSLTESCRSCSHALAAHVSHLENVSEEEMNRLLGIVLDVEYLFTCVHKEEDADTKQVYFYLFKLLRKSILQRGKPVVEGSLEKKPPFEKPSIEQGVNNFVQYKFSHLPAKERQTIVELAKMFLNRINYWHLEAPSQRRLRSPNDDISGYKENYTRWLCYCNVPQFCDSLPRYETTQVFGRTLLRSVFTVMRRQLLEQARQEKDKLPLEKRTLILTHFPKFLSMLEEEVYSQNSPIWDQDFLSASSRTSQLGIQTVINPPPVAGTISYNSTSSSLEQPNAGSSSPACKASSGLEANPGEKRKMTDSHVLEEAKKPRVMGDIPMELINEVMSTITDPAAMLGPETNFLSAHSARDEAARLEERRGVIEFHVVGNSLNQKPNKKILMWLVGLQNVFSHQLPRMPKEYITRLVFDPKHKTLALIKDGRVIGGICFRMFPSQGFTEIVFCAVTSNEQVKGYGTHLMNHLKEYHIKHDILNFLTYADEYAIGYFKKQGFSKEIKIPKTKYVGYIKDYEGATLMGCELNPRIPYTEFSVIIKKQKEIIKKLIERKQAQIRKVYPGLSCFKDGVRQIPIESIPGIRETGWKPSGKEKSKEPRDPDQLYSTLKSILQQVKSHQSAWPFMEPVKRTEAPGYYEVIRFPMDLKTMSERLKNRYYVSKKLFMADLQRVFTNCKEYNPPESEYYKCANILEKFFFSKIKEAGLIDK
Sequence of Histone acetyltransferase KAT2A (Homo sapiens) (Q92830 2-837 limits assumed): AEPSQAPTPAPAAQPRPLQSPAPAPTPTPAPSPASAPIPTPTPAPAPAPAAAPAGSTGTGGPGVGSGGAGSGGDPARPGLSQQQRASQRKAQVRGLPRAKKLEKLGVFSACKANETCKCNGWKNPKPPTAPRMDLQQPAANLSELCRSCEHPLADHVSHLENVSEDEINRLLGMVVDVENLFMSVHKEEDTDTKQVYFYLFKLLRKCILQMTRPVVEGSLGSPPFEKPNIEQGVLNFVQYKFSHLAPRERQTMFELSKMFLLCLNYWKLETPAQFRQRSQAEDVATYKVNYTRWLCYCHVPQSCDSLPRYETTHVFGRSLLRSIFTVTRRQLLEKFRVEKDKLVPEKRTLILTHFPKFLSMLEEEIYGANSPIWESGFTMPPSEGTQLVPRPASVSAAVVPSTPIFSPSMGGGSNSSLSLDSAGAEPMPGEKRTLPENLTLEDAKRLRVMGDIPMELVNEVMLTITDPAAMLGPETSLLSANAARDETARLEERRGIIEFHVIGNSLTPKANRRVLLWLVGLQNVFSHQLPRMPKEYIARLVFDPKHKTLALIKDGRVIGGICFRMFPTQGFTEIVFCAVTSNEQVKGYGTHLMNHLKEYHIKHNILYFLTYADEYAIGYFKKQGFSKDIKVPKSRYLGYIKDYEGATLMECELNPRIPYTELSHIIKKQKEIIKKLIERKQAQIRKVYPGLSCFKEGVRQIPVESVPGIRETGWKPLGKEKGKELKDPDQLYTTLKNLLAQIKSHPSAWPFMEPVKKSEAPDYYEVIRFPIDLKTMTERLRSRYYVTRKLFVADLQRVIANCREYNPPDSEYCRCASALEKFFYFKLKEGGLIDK
Sequence of Bromodomain-containing protein 9 (Q9H8M2 whole entry): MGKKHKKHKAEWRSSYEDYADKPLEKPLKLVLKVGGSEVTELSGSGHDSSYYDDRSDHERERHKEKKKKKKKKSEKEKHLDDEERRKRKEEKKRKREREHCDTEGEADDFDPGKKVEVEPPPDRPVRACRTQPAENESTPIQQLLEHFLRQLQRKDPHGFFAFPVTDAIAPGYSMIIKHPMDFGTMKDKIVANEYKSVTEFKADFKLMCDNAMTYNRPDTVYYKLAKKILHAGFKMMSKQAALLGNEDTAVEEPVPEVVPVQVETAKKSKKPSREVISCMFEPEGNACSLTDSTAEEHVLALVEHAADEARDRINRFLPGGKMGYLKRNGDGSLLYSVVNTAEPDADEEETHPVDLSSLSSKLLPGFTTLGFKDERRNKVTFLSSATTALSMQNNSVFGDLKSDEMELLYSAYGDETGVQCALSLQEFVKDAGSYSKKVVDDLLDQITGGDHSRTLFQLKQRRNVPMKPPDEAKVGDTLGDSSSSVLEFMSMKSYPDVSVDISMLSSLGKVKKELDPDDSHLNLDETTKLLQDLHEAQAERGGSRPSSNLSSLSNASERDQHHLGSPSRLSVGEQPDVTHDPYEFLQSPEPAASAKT
Sequence of Bromodomain-containing protein 2 (P25440 whole entry): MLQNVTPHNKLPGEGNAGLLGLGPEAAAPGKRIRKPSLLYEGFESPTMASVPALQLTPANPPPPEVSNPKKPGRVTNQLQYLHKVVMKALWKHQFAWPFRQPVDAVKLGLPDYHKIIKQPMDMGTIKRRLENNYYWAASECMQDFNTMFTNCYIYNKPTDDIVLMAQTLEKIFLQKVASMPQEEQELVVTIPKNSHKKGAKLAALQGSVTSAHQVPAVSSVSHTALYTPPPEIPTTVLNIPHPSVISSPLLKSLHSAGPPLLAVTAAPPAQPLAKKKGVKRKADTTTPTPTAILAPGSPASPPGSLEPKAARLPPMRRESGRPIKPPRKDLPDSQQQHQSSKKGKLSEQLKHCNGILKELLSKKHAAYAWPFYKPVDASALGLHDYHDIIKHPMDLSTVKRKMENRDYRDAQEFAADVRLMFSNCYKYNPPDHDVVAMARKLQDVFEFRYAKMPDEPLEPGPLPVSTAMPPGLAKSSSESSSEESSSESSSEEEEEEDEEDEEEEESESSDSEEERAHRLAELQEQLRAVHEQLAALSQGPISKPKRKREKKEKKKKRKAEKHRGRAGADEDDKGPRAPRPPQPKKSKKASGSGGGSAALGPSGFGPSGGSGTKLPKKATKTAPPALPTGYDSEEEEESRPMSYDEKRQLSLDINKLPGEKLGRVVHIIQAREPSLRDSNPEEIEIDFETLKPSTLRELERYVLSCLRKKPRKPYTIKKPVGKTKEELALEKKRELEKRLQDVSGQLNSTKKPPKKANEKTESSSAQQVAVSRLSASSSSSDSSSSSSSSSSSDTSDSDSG

Consider `Cc1nnc2c(NC3CCN(CC(C)(C)F)CC3)cc(C(=O)N3[C@@H]4c5ccccc5C[C@H]3C(=O)N[C@@H]4C(C)C)nn12`, for which the Kd in data set [1] is 126 nM; in data set [2] it was > 3160 nM; in data set [3] it was 1.26 nM; at Protein polybromo-1, > 316 nM; in data set [6], 200 nM; in data set [7] it was > 316 nM. In data set [10], the dissociation constant Kd was > 316 nM. Further, the Activity result with MDA-MB-468 is “Dose-Dependent Effect”; in data set [4], 73%; in [5] it was 56%; in the data set with T47D it was “Dose-Dependent Effect”; in the data set listed under Homo sapiens, 0%; in [8], 73%. Further, the figures for the Activity in [9] and in data set [12] were 80% and 53%, respectively. For the same compound, the logD in data set [11] worked out at 3. For the same compound, the IC50 in data set [13] is 79.4 nM; in data set [14], > 25100 nM; in [15] it was 7 nM.
